Data published in patent US8399451B2, “Heterocyclic compounds” (Bristol-Myers Squibb Company, priority 2009, dated 2013).
Like-named read-outs stand apart in the source and are kept apart here.

How the values were obtained:
[1] = target: T1, S1P1 (Homo sapiens, UniProt P21453); experiment: S1P1 Binding Assay (33P-S1P radioligand competition, membranes); parameters: expressed in transfected cells; host or cells: CHO cells; conditions: membranes from CHO cells expressing human S1P1; 0.03 nM 33P-S1P; rounded to two digits
T1 sequence (P21453 whole entry): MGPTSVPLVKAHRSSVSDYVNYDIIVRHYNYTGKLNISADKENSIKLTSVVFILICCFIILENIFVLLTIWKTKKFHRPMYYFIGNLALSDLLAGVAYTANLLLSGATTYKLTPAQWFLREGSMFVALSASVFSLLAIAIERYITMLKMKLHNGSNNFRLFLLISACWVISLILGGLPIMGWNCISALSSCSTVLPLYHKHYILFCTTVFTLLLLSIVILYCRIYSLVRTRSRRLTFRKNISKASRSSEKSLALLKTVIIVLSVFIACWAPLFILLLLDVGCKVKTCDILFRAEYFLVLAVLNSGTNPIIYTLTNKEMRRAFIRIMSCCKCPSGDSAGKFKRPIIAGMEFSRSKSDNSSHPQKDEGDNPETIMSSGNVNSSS
Procedure: Membranes were prepared from CHO cells expressing human S1P1. Cells were dissociated in buffer containing 20 mM HEPES, pH 7.5, 50 mM NaCl, 2 mM EDTA and Protease Inhibitor cocktail (Roche), and disrupted on ice using the Polytron homogenizer. The homogenate was centrifuged at 20,000 rpm (48,000 G) and the supernatant was discarded. The membrane pellets were resuspended in buffer containing 50 mM HEPES, pH 7.5, 100 mM NaCl, 1 mM MgCl2, 2 mM EDTA and stored in aliquots at −80° C. after protein concentration determination.
Binding was performed for 45 minutes at room temperature, terminated by collecting the membranes onto GF/B filter plates, and radioactivity was measured by TOPCOUNT®. The competition data of the test compounds over a range of concentrations was plotted as percentage inhibition of radioligand specific binding.
The results in Table A were rounded to two digits.

[2] = target: T2, S1P3 (Homo sapiens, UniProt Q99500); experiment: Receptor [35S] GTPγS Binding Assay, membranes from EDG3-Ga15-bla HEK293T cells; assay type: biochemical; conditions: * detection limit 31,000 nM or 62,000 nM
T2 construct: expressed in transfected cells; host or cells: EDG3-Ga15-bla HEK293T cells
T2 sequence (Q99500 whole entry): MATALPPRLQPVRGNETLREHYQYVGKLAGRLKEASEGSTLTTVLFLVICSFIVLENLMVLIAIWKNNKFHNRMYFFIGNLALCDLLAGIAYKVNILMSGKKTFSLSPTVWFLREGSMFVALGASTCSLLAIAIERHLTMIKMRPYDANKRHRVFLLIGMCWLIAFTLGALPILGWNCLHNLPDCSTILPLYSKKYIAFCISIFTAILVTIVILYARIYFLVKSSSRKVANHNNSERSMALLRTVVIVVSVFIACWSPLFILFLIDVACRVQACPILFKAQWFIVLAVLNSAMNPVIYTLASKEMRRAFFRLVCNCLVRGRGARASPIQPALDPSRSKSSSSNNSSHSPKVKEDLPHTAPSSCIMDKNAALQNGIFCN
Procedure: (§1) Receptor [35S] GTPγS Binding Assays
(§2) Membranes prepared from S1P1/CHO cells or EDG3-Ga15-bla HEK293T cells were added to the compound plate (40 μl/well, final protein 3 μg/well) with MULTIDROP®. [^35S]GTP (1250 Ci/mmol, Perkin Elmer) was diluted in assay buffer: 20 mM HEPES, pH7.5, 10 mM MgCl2, 150 mM NaCl, 1 mM EGTA, 1 mM DTT, 10 μM GDP, 0.1% fatty acid free BSA, and 10 μg/ml Saponin to 0.4 nM. 40 μl of the [^35S] GTP solution was added to the compound plate with a final concentration of 0.2 nM. […] At the end of incubation, all the mixtures in the compound plate were transferred to a 384 well FB filter plates via GPCR robot system. […] 30 μl of MicroScint 20 scintillation fluid was added to each well for counting at Packard TOPCOUNT®.

[3] = target: T1, S1P1; experiment: Receptor [35S] GTPγS Binding Assay, membranes from S1P1/CHO cells; assay type: biochemical; parameters: expressed in transfected cells; host or cells: S1P1/CHO cells; conditions: for S1P3/S1P1 GTPγS (ratio of S1P3 GTPγS EC50 to S1P1 GTPγS EC50): selectivity ratio calculated from Table B, * may be greater than reported value due to S1P3 assay limits
Procedure: as §1, §2

[4] = membranes from S1P1/CHO cells, read-out: S1P1 GTPγS EC50

SMILES	IC50 [1] [nM]	EC50 [2] [nM]	S1P3/S1P1 GTPγS (ratio of S1P3 GTPγS EC50 to S1P1 GTPγS EC50) [3]	other results
CCCc1c(-c2nc(-c3ccc(C(O)CN4CCCC(C(=O)N(CC)CC)C4)cc3)no2)noc1-c1ccccc1 (centres unmarked) [Example 24, N,N-Diethyl-1-(2-hydroxy-2-(4-(5-(5-phenyl-4-propylisoxazol-3-yl)-1,2,4-oxadiazol-3-yl)phenyl)ethyl)piperidine-3-carboxamide]	43	3500	8.6	EC50 [3, 4]: 410 nM
O=C(O)C1CN(CC(O)c2ccc(-c3noc(-c4onc(-c5ccccc5)c4C(F)(F)F)n3)cc2)CCO1 (centres unmarked) [Example 28, 4-(2-Hydroxy-2-(4-(5-(3-phenyl-4-(trifluoromethyl)isoxazol-5-yl)-1,2,4-oxadiazol-3-yl)phenyl)ethyl)morpholine-2-carboxylic acid]	31	–	–	–
CCCc1c(-c2nc(-c3ccc(CCN4CCC[C@H](C(=O)O)C4)cc3)no2)noc1-c1ccccc1 [Comparative Compound 119, (S)-1-(4-(5-(5-Phenyl-4-propylisoxazol-3-yl)-1,2,4-oxadiazol-3-yl)phenethyl)piperidine-3-carboxylic acid, reference compound]	420	> 62000	2.3	EC50 ([3]; read-out: S1P1 GTPγS EC50 value): 31000 nM; S1P3/S1P1 GTPγS (ratio of S1P3 GTPγS EC50 to S1P1 GTPγS EC50) ([3]; listed as Comp. 119): 2.3*
CC(O)(CN1CCC[C@H](C(=O)O)C1)c1ccc(-c2noc(-c3onc(-c4ccccc4)c3C(F)(F)F)n2)cc1 (stereo partly drawn) [Example 17, (3S)-1-(2-Hydroxy-2-(4-(5-(3-phenyl-4-(trifluoromethyl)isoxazol-5-yl)-1,2,4-oxadiazol-3-yl)phenyl)propyl)piperidine-3-carboxylic acid]	28	1200	3.8	EC50 [3, 4]: 320 nM
O=C(O)[C@H]1CCCN(CC(O)c2ccc(-c3noc(-c4onc(-c5ccccc5)c4C(F)(F)F)n3)c(C(F)(F)F)c2)C1 (stereo partly drawn) [Example 26, (3S)-1-(2-Hydroxy-2-(4-(5-(3-phenyl-4-(trifluoromethyl)isoxazol-5-yl)-1,2,4-oxadiazol-3-yl)-3-(trifluoromethyl)phenyl)ethyl)piperidine-3-carboxylic acid]	14	–	–	–

More lines, main results first:

IC50 [1] [nM]	EC50 [2] [nM]	S1P3/S1P1 GTPγS (ratio of S1P3 GTPγS EC50 to S1P1 GTPγS EC50) [3]	SMILES	other results
12	–	–	CCCc1c(-c2nc(-c3ccc(C(O)CN4CC[C@@H]4C(=O)O)cc3)no2)noc1-c1ccccc1 (stereo partly drawn) [Example 7, (2R)-1-(2-Hydroxy-2-(4-(5-(5-phenyl-4-propylisoxazol-3-yl)-1,2,4-oxadiazol-3-yl)phenyl)ethyl)azetidine-2-carboxylic acid]	–
2.2	–	–	CCCc1c(-c2nc(-c3ccc(C(O)CN4CCCCC4C(=O)O)cc3)no2)noc1-c1ccccc1 (centres unmarked) [Example 2, 1-(2-Hydroxy-2-(4-(5-(5-phenyl-4-propylisoxazol-3-yl)-1,2,4-oxadiazol-3-yl)phenyl)ethyl)piperidine-2-carboxylic acid]	–
0.45	–	–	CCCc1c(-c2nc(-c3ccc(C(O)CN4CC(C(=O)O)C4)cc3)no2)noc1-c1ccccc1 (centres unmarked) [Example 1, 1-(2-Hydroxy-2-(4-(5-(5-phenyl-4-propylisoxazol-3-yl)-1,2,4-oxadiazol-3-yl)phenyl)ethyl)azetidine-3-carboxylic acid]	–
14	–	–	O=C(O)CC1CN(CC(O)c2ccc(-c3noc(-c4onc(-c5ccccc5)c4C(F)(F)F)n3)cc2)C1 (centres unmarked) [Example 27, 2-(1-(2-Hydroxy-2-(4-(5-(3-phenyl-4-(trifluoromethyl)isoxazol-5-yl)-1,2,4-oxadiazol-3-yl)phenyl)ethyl)azetidin-3-yl)acetic acid]	–
4.8	–	–	CCCc1c(-c2nc(-c3ccc(C(O)CN4CCOC(C(=O)O)C4)cc3)no2)noc1-c1ccccc1 (centres unmarked) [Example 11, 4-(2-Hydroxy-2-(4-(5-(5-phenyl-4-propylisoxazol-3-yl)-1,2,4-oxadiazol-3-yl)phenyl)ethyl)morpholine-2-carboxylic acid]	–
